Source: patent US9700539B2, “Therapeutic application of (Boc)2-creatine” (UNIVERSITA' DEGLI STUDI DI GENOVA, priority 2013, dated 2017)
Each block holds one compound with its values, some of them ahead of it.

Tests used:
creatine kinase enzyme [1] = conditions: literature; cited from earlier work
creatine kinase enzyme [2] = test: Creatine kinase activity by the coupled enzymatic method (pyruvate kinase/lactate dehydrogenase, NADH at 340 nm); format: biochemical; conditions: 2 mM creatine
Description: The activity of the creatine kinase enzyme was measured by the enzymatic coupling method (Bergmeyer 1974). In this method, the ATP hydrolysis is coupled with the NADH oxidation, which is monitored, by means of a spectrophotometer, by the decrease in absorbance at 340 nm (ε340=6.22 mM^−1 cm^−1).
The dosage of the creatine kinase was carried out with the spectrophotometer at 340 nm, following the oxidation of the pyridine coenzyme NADH, which is expressed as a decrease in the absorbance. To be able to carry out the dosage, the reaction of the creatine kinase was combined with two other enzymatic reactions catalyzed respectively by the pyruvate kinase and by the lactate dehydrogenase (Bergmeyer 1974). This method, defined as the coupled method, is necessary because both the substrata and the products of the creatine kinase are not directly visible to the spectrophotometer. In particular, the dosage solution contained the following compounds: 100 mM Tris HCl, pH 7.5, 2 mM MgCl2, 75 mM KCl, 2 mM ATP, 0.5 mM phosphoenolpyruvate, 0.16 mM NADH, 10 IU of pyruvate kinase and of lactate dehydrogenase, in a final volume of 1 ml. The reaction begins by the addition of 2 mM of creatine. The dosage is carried out continuously, i.e. the enzyme activity is followed in real time during the development of the reaction. The dosage trend is monitored by a register connected to the spectrophotometer. The reactions take place in the cuvette, as illustrated in FIG. 1.
To verify the inhibiting effect of (Boc)2-creatine, concentrations between 0.25 and 2 mM were added to the dosage solution, before the addition of the creatine.
To identify the type of inhibition, the maximum kinetic speed (Vmax) and the Michaelis Menten constant (Km) were measured. To be able to carry out the experiment, for each concentration of (Boc)2-creatine, the dosage was carried out in the presence of different substratum concentrations (creatine). The data were analyzed with the Lineweaver-Burk double-reciprocal plot.

[3] = tested on: slices of mouse hippocampus; test: Incubation of mouse hippocampus slices with (Boc)2-creatine; format: cell-based; conditions: 2 mM, 3 hours at 36° C.
Source text: Of course, high concentrations of (Boc)2-creatine will have a cytotoxic effect. […] Since tumor development is due to an uncontrolled cellular progression, a molecule which can control the main source of cell energy gives a valid means of controlling cell proliferation.

[4] = tested on: tumor cell lines that express a high level of creatine kinase; conditions: literature; cited from earlier work

SMILES: CCCCCC(CCCC)=C([Te]c1ccccc1)C(=O)c1ccccc1 [3-butyl-1-phenyl-2-(phenyltelluro)oct-en-1-one]
type of inhibition of creatine kinase (creatine kinase enzyme [1]): competitive inhibitor

inhibition of the creatine kinase (creatine kinase enzyme [2]; 0.25 mM (Boc)2-creatine): 21%
inhibition of the creatine kinase (creatine kinase enzyme [2]; 0.5 mM (Boc)2-creatine): 39%
inhibition of the creatine kinase (creatine kinase enzyme [2]; 0.75 mM (Boc)2-creatine): 75%
maximum inhibition of the creatine kinase (creatine kinase enzyme [2]; 1 mM (Boc)2-creatine): 95%
SMILES: CN(CC(=O)O)C(=NC(=O)OC(C)(C)C)NC(=O)OC(C)(C)C [(Boc)2-creatine]
cytotoxic effect on hippocampus slices (vital signs) [3]: show no vital signs

SMILES: NC(=O)CI [Iodoacetamide]
type of inhibition of creatine kinase (creatine kinase enzyme [1]): complete and irreversible inhibition

SMILES: N=C1NCCN1CC(=O)O [cyclocreatine, 1-carboxymethyl-2-iminoimidazolidine]
inhibition of tumor cell lines [4]: suitable for inhibiting tumor cell lines that express a high level of creatine kinase
